Assay results: US10981926B2 (Janssen Pharmaceutica NV, priority 2016, dated 2021)

What was measured:
Format in all cases: cell-based
[1] = target: T1, wild-type Androgen Receptor (AR-wt) (Homo sapiens (Human), UniProt P10275); assay: LNCaP-AR-wt ANT reporter assay (antagonist mode); conditions: antagonist mode; for Emax: maximum % inhibition of R1881 control response over tested concentration range, read-out: LNCaP-AR-wt ANT MAX % Inh; for IC50: pIC50 = −Log10(IC50 in Molar), read-out: LNCaP-AR-wt ANT pIC50 (converted)
[2] = target: T1, wild-type Androgen Receptor (AR-wt); assay: LNCaP-AR-wt AG reporter assay (agonist mode); conditions: agonist mode; for Emax: maximum % stimulation over tested concentration range, read-out: LNCaP-AR-wt AG MAX % Stim; for EC50: pEC50 = −Log10(EC50 in Molar), read-out: LNCaP-AR-wt AG pEC50 (converted)
[3] = target: T2, F876L mutant Androgen Receptor (AR-F876L) (Homo sapiens (Human), UniProt P10275, F877L); assay: LNCaP-AR-F876L ANT reporter assay (antagonist mode); conditions: antagonist mode; for Emax: maximum % inhibition of R1881 control response over tested concentration range, read-out: LNCaP-AR-F876L ANT MAX % Inh; for IC50: pIC50 = −Log10(IC50 in Molar), read-out: LNCaP-AR-F876L ANT pIC50 (converted)
[4] = target: T2, F876L mutant Androgen Receptor (AR-F876L); assay: LNCaP-AR-F876L AG reporter assay (agonist mode); conditions: agonist mode; for Emax: maximum % stimulation over tested concentration range, read-out: LNCaP-AR-F876L AG MAX % Stim; for EC50: pEC50 = −Log10(EC50 in Molar), read-out: LNCaP-AR-F876L AG pEC50 (converted)

T1 sequence (P10275 whole entry): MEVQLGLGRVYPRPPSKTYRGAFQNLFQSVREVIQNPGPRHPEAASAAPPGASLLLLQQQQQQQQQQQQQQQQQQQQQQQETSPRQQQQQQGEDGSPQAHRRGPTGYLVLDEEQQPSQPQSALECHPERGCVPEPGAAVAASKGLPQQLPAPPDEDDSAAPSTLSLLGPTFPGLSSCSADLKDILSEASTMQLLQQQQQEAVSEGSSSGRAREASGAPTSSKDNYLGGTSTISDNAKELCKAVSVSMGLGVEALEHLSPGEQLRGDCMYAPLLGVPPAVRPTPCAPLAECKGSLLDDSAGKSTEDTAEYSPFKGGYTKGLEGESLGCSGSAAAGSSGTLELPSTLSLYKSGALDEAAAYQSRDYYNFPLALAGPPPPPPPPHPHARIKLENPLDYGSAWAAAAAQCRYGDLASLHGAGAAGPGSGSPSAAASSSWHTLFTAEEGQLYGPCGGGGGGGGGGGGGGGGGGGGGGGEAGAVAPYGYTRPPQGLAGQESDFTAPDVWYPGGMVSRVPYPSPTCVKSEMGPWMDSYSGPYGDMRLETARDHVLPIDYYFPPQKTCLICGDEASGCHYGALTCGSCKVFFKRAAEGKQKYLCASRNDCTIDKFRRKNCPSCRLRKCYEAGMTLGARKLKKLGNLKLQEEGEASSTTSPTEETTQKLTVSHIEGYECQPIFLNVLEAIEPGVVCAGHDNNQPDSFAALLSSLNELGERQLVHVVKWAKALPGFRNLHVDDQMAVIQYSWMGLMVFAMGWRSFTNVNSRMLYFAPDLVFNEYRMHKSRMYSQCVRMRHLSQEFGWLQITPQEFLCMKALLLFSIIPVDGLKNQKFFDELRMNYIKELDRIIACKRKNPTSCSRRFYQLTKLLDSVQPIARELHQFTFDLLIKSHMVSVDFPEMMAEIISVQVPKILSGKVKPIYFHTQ
T2 sequence (P10275 whole entry F877L): as the sequence (P10275 whole entry) above, with F877L counted along it

Compound	Emax [1] [%]	IC50 [1] [nM]	Emax [2] [%]	EC50 [2] [µM]	Emax [3] [%]	IC50 [3] [nM]	Emax [4] [%]	EC50 [4] [µM]
N#Cc1ncc(N2C(=O)C3(CCC3)N(c3ccc(C(=O)NCC4CCNCC4)c(F)c3)C2=S)cc1C(F)(F)F [Cpd 221, 4-[6-[6-cyano-5-(trifluoromethyl)-3-pyridyl]-5-oxo-7-thioxo-6,8-diazaspiro[3.4]octan-8-yl]-2-fluoro-N-(4-piperidylmethyl)benzamide]	101	891	-0.1	> 15.1	100	589	0.1	> 15.1
N#Cc1ncc(N2C(=O)C3(CCC3)N(c3ccc(CN4CCC(N)CC4)cc3)C2=S)cc1C(F)(F)F [Cpd 224, 5-[8-[4-[(4-amino-1-piperidyl)methyl]phenyl]-5-oxo-7-thioxo-6,8-diazaspiro[3.4]octan-6-yl]-3-(trifluoromethyl)pyridine-2-carbonitrile]	101	1780	0	> 15.1	100	1480	0.1	> 15.1
N#Cc1ncc(N2C(=O)C3(CCC3)N(c3ccc(CN4CCN(CCO)CC4)cc3)C2=S)cc1C(F)(F)F [Cpd 227, 5-[8-[4-[[4-(2-hydroxyethyl)piperazin-1-yl]methyl]phenyl]-5-oxo-7-thioxo-6,8-diazaspiro[3.4]octan-6-yl]-3-(trifluoromethyl)pyridine-2-carbonitrile]	102	513	-0.2	> 15.1	100	417	0.1	> 15.1
N#Cc1ncc(N2C(=O)C3(CCC3)N(c3ccc(CN4CCNC(=O)C4)cc3)C2=S)cc1C(F)(F)F [Cpd 228, 5-[5-oxo-8-[4-[(3-oxopiperazin-1-yl)methyl]phenyl]-7-thioxo-6,8-diazaspiro[3.4]octan-6-yl]-3-(trifluoromethyl)pyridine-2-carbonitrile]	102	209	-0.2	> 15.1	101	115	0.1	> 15.1
Cc1cc(N2C(=O)C3(CCC3)N(c3ccc(CC4CCNCC4)cc3)C2=S)cnc1C#N [Cpd 235, 3-methyl-5-[5-oxo-8-[4-(4-piperidylmethyl)phenyl]-7-thioxo-6,8-diazaspiro[3 4]octan-6-yl]pyridine-2-carbonitrile]	101	1070	0.2	> 15.1	101	562	0.1	> 15.1
COc1cc(N2C(=O)C3(CCC3)N(c3ccc(CC4CCNCC4)cc3)C2=S)cnc1C#N [Cpd 236, 3-Methoxy-5-[8-oxo-5-(4-piperidin-4-ylmethyl-phenyl)-6-thioxo-5,7-diaza-spiro[3.4]oct-7-yl]-pyridine-2-carbonitrile]	103	457	0.6	> 15.1	101	269	0.2	> 15.1
CN1CCC(Cc2ccc(N3C(=S)N(c4cnc(C#N)c(C(F)(F)F)c4)C(=O)C34CCC4)cc2)CC1 [Cpd 237, 5-[8-[4-[(1-methyl-4-piperidyl)methyl]phenyl]-5-oxo-7-thioxo-6,8-diazaspiro[3.4]octan-6-yl]-3-(trifluoromethyl)pyridine-2-carbonitrile]	104	832	0.4	> 15.1	100	468	0.1	> 15.1

Second part, the molecule after the results:

Emax [1] [%]	IC50 [1] [nM]	Emax [2] [%]	EC50 [2] [µM]	Emax [3] [%]	IC50 [3] [nM]	Emax [4] [%]	EC50 [4] [µM]	Compound
101	1410	0	> 15.1	101	813	0.1	> 15.1	Cc1cc(N2C(=O)C3(CCC3)N(c3ccc(CC4CCN(C)CC4)cc3)C2=S)cnc1C#N [Cpd 238, 3-methyl-5-[8-[4-[(1-methyl-4-piperidyl)methyl]phenyl]-5-oxo-7-thioxo-6,8-diazaspiro[3.4]octan-6-yl]pyridine-2-carbonitrile]
103	603	-0.1	> 15.1	102	347	0.2	> 15.1	COc1cc(N2C(=O)C3(CCC3)N(c3ccc(CC4CCN(C)CC4)cc3)C2=S)cnc1C#N [Cpd 239, 3-methoxy-5-[8-[4-[(1-methyl-4-piperidyl)methyl]phenyl]-5-oxo-7-thioxo-6,8-diazaspiro[3.4]octan-6-yl]pyridine-2-carbonitrile]
98.7	646	0.2	> 15.1	101	245	-0.5	> 15.1	Cn1cnc2cc(N3C(=S)N(c4cnc(C#N)c(C(F)(F)F)c4)C(=O)C34CCC4)ccc21 [Cpd 244, 5-[8-(1-methylbenzimidazol-5-yl)-5-oxo-7-thioxo-6,8-diazaspiro[3.4]octan-6-yl]-3-(trifluoromethyl)pyridine-2-carbonitrile]
99.3	479	0	> 15.1	102	151	0.5	> 15.1	Cc1nc2cc(N3C(=S)N(c4cnc(C#N)c(C(F)(F)F)c4)C(=O)C34CCC4)ccc2[nH]1 [Cpd 245, 5-[8-(2-methyl-1H-benzimidazol-5-yl)-5-oxo-7-thioxo-6,8-diazaspiro[3.4]octan-6-yl]-3-(trifluoromethyl)pyridine-2-carbonitrile]
0	1120	0.1	> 15.1	99.5	1150	0.2	> 15.1	Cc1cc(N2C(=O)C3(CCC3)N(c3cnc(OC4CCNCC4)nc3)C2=S)cnc1C#N [Cpd 246, 3-methyl-5-[5-oxo-8-[2-(4-piperidyloxy)pyrimidin-5-yl]-7-thioxo-6,8-diazaspiro[3.4]octan-6-yl]pyridine-2-carbonitrile]
0	1000	-0.1	> 15.1	99.4	1200	0.2	> 15.1	Cc1cc(N2C(=O)C3(CCC3)N(c3cnc(OC4CCN(C)CC4)nc3)C2=S)cnc1C#N [Cpd 247, 3-Methyl-5-[8-[2-[(1-methyl-4-piperidyl)oxy]pyrimidin-5-yl]-5-oxo-7-thioxo-6,8-diazaspiro[3,4]octan-6-yl]pyridine-2-carbonitrile]
0	417	0	> 15.1	102	372	0.4	> 15.1	N#Cc1ncc(N2C(=O)C3(CCC3)N(c3ccc4c(ccn4CCO)c3)C2=S)cc1C(F)(F)F [Cpd 248, 5-[8-[1-(2-hydroxyethyl)indol-5-yl]-5-oxo-7-thioxo-6,8-diazaspiro[3.4]octan-6-yl]-3-(trifluoromethyl)pyridine-2-carbonitrile]
0	407	0	> 15.1	103	316	0	> 15.1	N#Cc1ncc(N2C(=O)C3(CCC3)N(c3ccc4c(ccn4C4CCNCC4)c3)C2=S)cc1C(F)(F)F [Cpd 249, 5-[8-Oxo-5-(1-piperidin-4-yl-1H-indol-5-yl)-6-thioxo-5,7-diaza-spiro[3.4]oct-7-yl]-3-trifluoromethyl-pyridine-2-carbonitrile]
0	1170	0	> 15.1	101	977	0.1	> 15.1	N#Cc1ncc(N2C(=O)C3(CCC3)N(c3ccc4ccn(CCO)c4c3)C2=S)cc1C(F)(F)F [Cpd 250, 5-[8-[1-(2-hydroxyethyl)indol-6-yl]-5-oxo-7-thioxo-6,8-diazaspiro[3.4]octan-6-yl]-3-(trifluoromethyl)pyridine-2-carbonitrile]
0	288	-0.1	> 15.1	101	174	0.1	> 15.1	CN1CCC(n2ccc3cc(N4C(=S)N(c5cnc(C#N)c(C(F)(F)F)c5)C(=O)C45CCC5)ccc32)CC1 [Cpd 251, 5-[8-[1-(1-methyl-4-piperidyl)indol-5-yl]-5-oxo-7-thioxo-6,8-diazaspiro[3.4]octan-6-yl]-3-(trifluoromethyl)pyridine-2-carbonitrile]
0	407	-0.1	> 15.1	100	832	-0.1	> 15.1	N#Cc1ncc(N2C(=O)C3(CCC3)N(c3cnc(OC4CCN(CCO)CC4)nc3)C2=S)cc1C(F)(F)F [Cpd 252, 5-[8-[2-[[1-(2-hydroxyethyl)-4-piperidyl]oxy]pyrimidin-5-yl]-5-oxo-7-thioxo-6,8-diazaspiro[3.4]octan-6-yl]-3-(trifluoromethyl)pyridine-2-carbonitrile]
